# Assay results from patent publication EP0449955B1, “SYNTHETIC HIV-LIKE PEPTIDES, THEIR COMPOSITIONS AND USES” (CLARITY TECHNOLOGIES INCORPORATED, priority 1988, dated 1996).
# “Also recorded” adds a separate entry of the source.
# Test system: SIV/HIV-2 antibodies
# Test: EIA of HIV-2 gp32 peptide-protein conjugates against macaque serum pools
# Type: binding
# Details: peptide conjugated via C-terminus to BSA (SMCC), coated at 10 micrograms peptide/ml; 1:101 dilution of SIV+ macaque serum pool; Figure 5
# Method: The free peptides or peptide-protein conjugates of Figures 1-13 were initially screened for immunoreactivity by coating each well of polystyrene microtiter EIA plates (Costar, Cambridge, Massachusetts, U.S.A.) with 0.2 ml amounts of concentrations of 5-50 micrograms/ml peptide in Tris buffer, 10 mM, pH 8.0, at 4°C overnight. Peptides or peptide-protein conjugates showing immunoreactivity by EIA were then further diluted for coating to determine the minimal concentrations required that allowed maximal immunoreactivity with antibodies to HIV, and minimal nonspecific reactivity with normal sera. The EIA tests were performed as follows: The coating solution was removed from each well and the wells were blocked at 37°C for 30 minutes with a solution of 50 mM phosphate, 100 mM NaCl, pH 7.4, 1% BSA, 0.5% gelatin. The wells were then aspirated dry with a microtiter plate washer and washed 3 times with a solution of 50 mM phosphate, 100 mM NaCl, .05% Tween 20, (trademark) pH 7.4 (PBST). […] Reactions were stopped with 50 microliters of 4N H₂SO₄, and the color development was quantitated in a Multiscan plate reader at A₄₉₂. […] Most peptides and peptide conjugates were initially screened against a 1:101 dilution of pools of HIV positive or HIV negative sera, and the same serum pool was used to allow quantitative comparison of immunoreactivity of different free peptides or peptide-protein conjugates.
# The peptides in Figures 1 and 5 were synthesized as described in Example 1 and conjugated to KLH or BSA as described in Example 2. These peptide-protein conjugates were coated to polystyrene microtiter plates all at a concentration 10 micrograms peptide/ml and evaluated for immunoreactivity as described in Example 3, using a 1:101 dilution of a pool of sera (HIV+/SIV+, respectively) containing antibodies to HIV-1 (Figure 1) or to HIV-2 (Figure 5), as well as pooled serum (HIV-/SIV-, respectively) containing no antibodies to HIV-1 or HIV-2. […]
sequence,measurement,value
ARLNSWGCAFRQVCHGC [2S25],immunoreactivity with SIV/HIV-2 antibodies,maximally immunoreactive; also recorded: Significant immunoreactivity; also recorded: best immunoreactivity
